Source: the supplement of paper PMC5908809

Columns and labels:
[1] = test system: normal NK cells expanded with K562-aAPC; experiment: drug sensitivity score (DSS) (DSS units); higher = more sensitive; extreme values may be limits of the assay; details: 72 h; IL-2 2.5 ng/mL
Experimental: (§1)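 Drug sensitivity and resistance testing on K562-aAPC-expanded normal NK cells: 5 concentrations (10-fold steps over a 10,000-fold range), 72 h at 37 °C, viability by CellTiter-Glo normalised to DMSO and benzethonium chloride controls; DSS from the fitted curve.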

[2] = test system: KAI3 (IL-2 2.5 ng/mL); experiment: as above; details: 72 h
[3] = test system: IMC-1 (IL-2 20 ng/mL); experiment: as above; details: 72 h
[4] = test system: normal primary NK cells, pool 2 (3 donors) (IL-2 2.5 ng/mL); experiment: as above; details: 72 h
[5] = test system: normal primary NK cells, pool 1 (3 donors) (IL-2 2.5 ng/mL); experiment: as above; details: 72 h
[6] = test system: NKL (IL-2 2.5 ng/mL); experiment: as above; details: 72 h
[7] = test system: normal primary NK cells, pool 1 (3 donors), resting (IL-2 0 ng/mL); experiment: as above; details: 72 h
[8] = test system: NK-92 (IL-2 2.5 ng/mL); experiment: as above; details: 72 h
[9] = test system: DERL-7 (IL-2 2.5 ng/mL); experiment: as above; details: 72 h
[10] = test system: NK-YS (IL-2 2.5 ng/mL); experiment: as above; details: 72 h
[11] = test system: normal primary NK cells, pool 3 (3 donors) (IL-2 2.5 ng/mL); experiment: as above; details: 72 h
[12] = test system: YT (IL-2 2.5 ng/mL); experiment: as above; details: 72 h
[13] = test system: SNK-6 (IL-2 2.5 ng/mL); experiment: as above; details: 72 h
[14] = test system: KHYG-1 (IL-2 2.5 ng/mL); experiment: as above; details: 72 h
[15] = test system: KAI3 (IL-2 2.5 ng/mL); experiment: percent inhibition of viability; higher = more inhibition; details: 72 h
[16] = test system: IMC-1 (IL-2 20 ng/mL); experiment: as above; details: 72 h
[17] = test system: normal primary NK cells, pool 2 (3 donors) (IL-2 2.5 ng/mL); experiment: as above; details: 72 h
[18] = test system: normal primary NK cells, pool 1 (3 donors) (IL-2 2.5 ng/mL); experiment: as above; details: 72 h
[19] = test system: NKL (IL-2 2.5 ng/mL); experiment: as above; details: 72 h
[20] = test system: normal primary NK cells, pool 1 (3 donors), resting (IL-2 0 ng/mL); experiment: as above; details: 72 h
[21] = test system: NK-92 (IL-2 2.5 ng/mL); experiment: as above; details: 72 h
[22] = test system: DERL-7 (IL-2 2.5 ng/mL); experiment: as above; details: 72 h
[23] = test system: NK-YS (IL-2 2.5 ng/mL); experiment: as above; details: 72 h
[24] = test system: normal primary NK cells, pool 3 (3 donors) (IL-2 2.5 ng/mL); experiment: as above; details: 72 h
[25] = test system: YT (IL-2 2.5 ng/mL); experiment: as above; details: 72 h
[26] = test system: SNK-6 (IL-2 2.5 ng/mL); experiment: as above; details: 72 h
[27] = test system: KHYG-1 (IL-2 2.5 ng/mL); experiment: as above; details: 72 h
[28] = test system: normal NK cells expanded with K562-aAPC; experiment: as above; details: 72 h, IL-2 2.5 ng/mL
Experimental: as §1

O=C(Nc1cc(Cl)cc2c1[nH]c1cnccc12)c1cccnc1 [PS-1145] (max concentration tested 25000 nM)
Details | drug sensitivity score
[1] | 0
[2] | 10.1
[3] | 0.51
[4] | 0
[5] | 0.64
[6] | 0
[7] | 0
[8] | 1.52
[9] | 0
[10] | 0.04
[11] | 1.86
[12] | 0.38
[13] | 1.45
[14] | 0.87

percent inhibition of viability [%]
Details | 2.5 nM | 25 nM | 250 nM | 2500 nM | 25000 nM
[15] | 5.94 | 6.21 | 4.4 | 48.5 | 75
[16] | -6.22 | -1.55 | 3.4 | 7.36 | 16
[17] | -19.7 | -10.7 | 3.18 | 6.82 | 10.1
[18] | 5.83 | -8.31 | 15.4 | 7.93 | 11.5
[19] | 12.7 | 11.1 | 10.4 | 9.5 | 20.8
[20] | -26.1 | -30.6 | 0.68 | -5.12 | -6.42
[21] | -0.17 | -20.2 | -5.95 | 4.6 | 23.6
[22] | -3.2 | -13 | 1.95 | -4.1 | -8.03
[23] | 0.26 | 0.9 | 2.11 | 7.41 | 11.3
[24] | -2.28 | -6.49 | 7.93 | 14.6 | 10.4
[25] | 3.94 | 1.19 | 1.07 | 4.91 | 13.9
[26] | -11.2 | 3.19 | -6.13 | 14.1 | 16.6
[27] | 5.69 | 5.58 | 12.9 | 7.66 | 16.4
[28] | 2.02 | 0.77 | -1.48 | -6.16 | 6.75

Cc1ccc(Nc2nccc(N(C)c3ccc4c(C)n(C)nc4c3)n2)cc1S(N)(=O)=O [Pazopanib] (max concentration tested 10000 nM)
Details | drug sensitivity score
[1] | 0.02
[2] | 1.17
[3] | 4.34
[4] | 0
[5] | 0
[6] | 1.08
[7] | 0
[8] | 5.68
[9] | 0
[10] | 1.11
[11] | 0
[12] | 1.79
[13] | 15
[14] | 5.18

percent inhibition of viability [%]
Details | 1 nM | 10 nM | 100 nM | 1000 nM | 10000 nM
[15] | -4.79 | -5.2 | 1.76 | 10.1 | 18.6
[16] | -4.11 | -5.35 | 2.08 | 16.6 | 44.2
[17] | -17.7 | -14.4 | -13.5 | -2.24 | 2.28
[18] | -5.94 | 2.19 | -7.48 | -8.52 | -1.45
[19] | -16.9 | -17.8 | -11.3 | 13.6 | 14.8
[20] | 8.82 | 5.43 | -6.14 | -6.41 | 4.16
[21] | 3.54 | 3.74 | 11.9 | 27.6 | 33.7
[22] | -0.93 | 9.12 | -0.5 | -6.76 | -10.4
[23] | -0.74 | 0.29 | 6.42 | 12.1 | 15.1
[24] | -10.1 | -9.49 | -4.17 | -3.69 | -2.21
[25] | 0.54 | 3.53 | 8.86 | 14.9 | 16.6
[26] | 7.81 | 14.5 | 36.6 | 53.3 | 48.6
[27] | -2.36 | -0.84 | 4.74 | 27.1 | 36.6
[28] | 3.24 | -2.13 | 1.77 | 5.99 | 11.2

NS(=O)(=O)OC[C@@H]1C[C@@H](n2ccc3c(N[C@H]4CCc5ccccc54)ncnc32)C[C@@H]1O [Pevonedistat] (max concentration tested 10000 nM)
Details | drug sensitivity score
[1] | 12.6
[2] | 27.2
[3] | 22.6
[4] | 9.66
[5] | 14
[6] | 16.1
[7] | 0
[8] | 14.2
[9] | 16.3
[10] | 15
[11] | 14
[12] | 22.8
[13] | 29
[14] | 26.2

percent inhibition of viability [%]
Details | 1 nM | 10 nM | 100 nM | 1000 nM | 10000 nM
[15] | 9.59 | 12.4 | 70.2 | 95 | 100
[16] | 0.59 | 6.87 | 46.6 | 92.8 | 98.2
[17] | -6.66 | 4.92 | 9.96 | 45 | 64.2
[18] | -6.09 | 19.2 | 23.3 | 57.4 | 69.8
[19] | -12.9 | -14.6 | -16.9 | 92.3 | 104
[20] | 1.82 | 21.5 | -26.7 | -18.9 | -22.4
[21] | -8.15 | 6.99 | 1.09 | 75.8 | 109
[22] | 1.08 | 2.36 | -6.58 | 91.5 | 101
[23] | 0.95 | -1.33 | 3.83 | 78.1 | 98.4
[24] | -5.71 | 5 | 10.3 | 68.8 | 81
[25] | -2.08 | 2.87 | 62.7 | 79.6 | 82.8
[26] | 23.6 | 3.72 | 89 | 97.2 | 99.5
[27] | 3.14 | -1.1 | 71.7 | 105 | 106
[28] | -5 | -5.72 | -9.68 | 70.2 | 80.3

CS(=O)(=O)N1CCN(Cc2cc3nc(-c4cccc5[nH]ncc45)nc(N4CCOCC4)c3s2)CC1 [Pictilisib] (max concentration tested 10000 nM)
Details | drug sensitivity score
[1] | 5.88
[2] | 4.66
[3] | 0
[4] | 4.41
[5] | 8.06
[6] | 9.46
[7] | 8.8
[8] | 11
[9] | 12.9
[10] | 6.66
[11] | 2.3
[12] | 6.22
[13] | 2.73
[14] | 4.95

percent inhibition of viability [%]
Details | 1 nM | 10 nM | 100 nM | 1000 nM | 10000 nM
[15] | -6.58 | 2.21 | 8.79 | 17.4 | 52.6
[16] | -6.08 | -5.88 | -14.1 | -27.2 | -37
[17] | -12.1 | 3.86 | 0.41 | 8.6 | 55.1
[18] | -12 | -5.63 | 1.66 | 32.2 | 72.9
[19] | -16 | -14.4 | -0.35 | 45.4 | 73.1
[20] | -0.3 | -14.8 | 0.53 | 45.2 | 63.4
[21] | 4.34 | 0.31 | 30.3 | 36.6 | 73.9
[22] | 0.8 | 4.11 | 16.1 | 57.5 | 87.1
[23] | 0.04 | 3.57 | 4.67 | 27.4 | 64.3
[24] | -9.78 | -13.3 | -0.72 | 3.18 | 37.3
[25] | -3.11 | -1.03 | 5.07 | 24.7 | 62
[26] | 9.42 | 16.7 | -3.54 | 3.83 | 42
[27] | -3.48 | -3.66 | -5.51 | 9.17 | 62.5
[28] | 2.02 | 0.78 | 10.8 | 25.4 | 51.1

COc1ccc(Cl)c(Nc2nc3ccccc3nc2NS(=O)(=O)c2cccc(NC(=O)C(C)(C)N)c2)c1 [Pilaralisib] (max concentration tested 2500 nM)
Details | drug sensitivity score
[1] | 0.55
[2] | 1.25
[3] | 0
[4] | 1.39
[5] | 0.02
[6] | 1.45
[7] | 1.41
[8] | 6.61
[9] | 2.77
[10] | 0.68
[11] | 0.19
[12] | 2.91
[13] | 0.01
[14] | 1.04

percent inhibition of viability [%]
Details | 0.25 nM | 2.5 nM | 25 nM | 250 nM | 2500 nM
[15] | -9.17 | -2.97 | -7.92 | 0.18 | 28.9
[16] | -10.7 | -5.75 | -6.19 | -0.79 | 3.28
[17] | -6.75 | -2.47 | 3.08 | 7.62 | 22.6
[18] | -2.73 | -2.17 | 6.91 | 0.33 | 11.2
[19] | -14.9 | -17.9 | -13.7 | 0.37 | 31.5
[20] | -1.59 | 14 | 8.93 | 7.44 | 20.9
[21] | 1.29 | 7.6 | 3.1 | 33.3 | 47.3
[22] | 4.27 | -2.64 | 5.48 | 2.26 | 47.2
[23] | -9.63 | -5.01 | -7.74 | -2.2 | 23.1
[24] | -0.55 | -0.41 | 8.73 | -3.82 | 16
[25] | -4.96 | -1.45 | 0.38 | 4.73 | 42
[26] | -25.1 | -17.9 | -11.5 | -18.6 | 12.9
[27] | -8.15 | -0.08 | -3.78 | 6.51 | 17.4
[28] | -5.86 | -9.89 | -4.45 | 9.09 | 13
